According to PubChem BioAssay AID179 (DTP/NCI, 2004):
Several values for one entry are separate records, joined by “and”; a condition that tells them apart may be missing. Identical values can stand only once. Activity calls are given as the source filed them.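 How the source made its calls: active means compounds giving half or more protection of infected cells from virus-caused growth loss, again on retest; inactive means the rest.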

Tested on: CEM cells HIV-1 protection, formazan growth assay
Test: NCI AIDS Antiviral Assay
Conditions: for IC50: measured here: growth of uninfected CEM cells
How it was run: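 Category rules: moderately active means at least 50% protection on retest, and confirmed active means 100% protection reproducibly. The underlying data came from a formazan growth assay in HIV-1-infected CEM cells.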

| Compound | EC50 | IC50 [µM] | outcome |
| --- | --- | --- | --- |
| CC(C)(C)C1=CC(=C(c2ccc(-c3c4nc(c(-c5ccc(C(=C6C=C(C(C)(C)C)C(=O)C(C(C)(C)C)=C6)c6cc(C(C)(C)C)c(O)c(C(C)(C)C)c6)cc5)c5ccc([nH]5)c(-c5ccc(C(=C6C=C(C(C)(C)C)C(=O)C(C(C)(C)C)=C6)c6cc(C(C)(C)C)c(O)c(C(C)(C)C)c6)cc5)c5nc(c(-c6ccc(C(=C7C=C(C(C)(C)C)C(=O)C(C(C)(C)C)=C7)c7cc(C(C)(C)C)c(O)c(C(C)(C)C)c7)cc6)c6ccc3[nH]6)C=C5)C=C4)cc2)c2cc(C(C)(C)C)c(O)c(C(C)(C)C)c2)C=C(C(C)(C)C)C1=O | > 100 µM | > 100 |  |
| CCOc1ccccc1NC(=O)CC1SC(=Nc2ccc([N+](=O)[O-])cc2)NC1=O (stereo not drawn) | > 229 µM | 93.3 |  |
| C[C@H]1OCN(C(=O)c2cc3ccccc3cc2SSc2cc3ccccc3cc2C(=O)N2CO[C@H](C)[C@H]2C(=O)O)[C@@H]1C(=O)O | > 100 µM | > 100 |  |
| CNc1ccccc1S(=O)(=O)c1cc(Cl)ccc1OC | 151 µM | > 200 |  |
| CN(C)CCNC1c2ccccc2CCc2ccccc21 |  |  | inactive |
| O=C1CSC(/C(=C\c2ccc(Cl)cc2)c2nc3ccccc3[nH]2)=N1 | > 10 µM | > 10 |  |
| CC1(C)OC[C@H](COCOP2(=O)Oc3ccc4ccccc4c3-c3c(ccc4ccccc34)O2)O1 | > 200 µM | 34.7 |  |
| CCCCCCOC(=O)c1ccc(NC(=O)CN(CC)CC)cc1 | > 200 µM | 37.2 |  |
| COc1ccc(C2OCC3C(c4ccc(OC)c(OC)c4)OCC23)cc1OC (stereo not drawn) | > 200 µM | 97.7 |  |
| Cc1[nH]c2c(ccc3c2ccc2c(=O)c(C)c(C)[nH]c23)c(=O)c1C | > 200 µM | 138 |  |
| CC1(C)C2CCC1(CS(=O)(=O)Nc1ccccc1)C(=O)C2 (stereo not drawn) | > 200 µM | > 200 |  |
| COC(OC)c1cccc2c1C(=O)CCC1(O)c3ccccc3C1C2 (stereo not drawn) | > 155 µM | 138 |  |
| CC(=O)c1ccccc1NCC(=O)Nn1cnc2ccc(S(=O)(=O)Nc3ccccc3C(C)=O)cc2c1=O | > 200 µM | > 200 |  |
| N#CCCC1(CCC#N)CCCCCCC(CCC#N)(CCC#N)C(=O)C1=O | > 200 µM | > 200 |  |
| Cc1ccc2nsnc2c1[N+](=O)[O-] | > 257 µM | > 257 |  |
| O=C1c2ccccc2C(=O)c2c(O)ccc(O)c21 | > 77.6 µM | > 77.6 |  |
| C=C(C=O)[C@@H]1C2OC(=O)C(=C)[C@@H]2CC(O)[C@@]1(C)CC (stereo partly drawn) | > 151 µM | 5.89 |  |
| Oc1[nH]c2ccccc2c1N=NC(=S)N1CCCCC1 | > 200 µM | 1.02 |  |
| CC1(C)OC(=O)C2(O1)C(=O)C1CCCCC12 (stereo not drawn) | > 200 µM | > 200 |  |
| C=CCC(C)C12CCNC(Cc3ccc(O)cc31)C2C (stereo not drawn) | > 200 µM | > 200 |  |
| Cc1cc(=O)[nH]c(CNC(=O)c2ccc3ccccc3c2)n1 | > 123 µM | > 123 |  |
| O=Cc1ccc(-c2ccc(-c3ccc(CO)s3)o2)s1 |  |  | inactive |
| COc1cc2c3c(c1)SC(C)C(=O)N3CCN2 (stereo not drawn) | > 200 µM | 105 |  |

| Compound | EC50 | IC50 [µM] | outcome |
| --- | --- | --- | --- |
| O=C(O)/C=C\C(=O)Nc1ccc(SSc2ccc(NC(=O)/C=C\C(=O)O)cc2)cc1 | 182 µM | > 200 |  |
| O=C1NC(=O)C2(CCCCC2)N1 | > 200 µM | > 200 |  |
| CC(C)C(=O)[O-].CC(C)C(=O)[O-].N.N.N.N.[Co+3].[O-][Cl+3]([O-])([O-])[O-] |  |  | inactive |
| O=c1c2cc(S(=O)(=O)Nc3c(Cl)cccc3Cl)ccc2ncn1NS(=O)(=O)c1ccc2ccccc2c1 | > 200 µM | 37.2 |  |
| COC(=O)C(=O)C(C(C)=O)C(=O)C(=O)Nc1ccc(C)cc1C (stereo not drawn) | > 112 µM | > 112 |  |
| CCCCc1c(N(C)C)c(OC(C)=O)c(-c2cn(C)c3ccccc23)oc1=O | > 200 µM | 31.6 |  |
| CN1CC[C@@H](O)C(CNC23CC4CC(CC(C4)C2)C3)C1 (stereo partly drawn) | > 200 µM | > 200 |  |
| N#CC(C(=O)/C(=N\Nc1nc(=S)[nH]n1N)C(C#N)c1ccc(Cl)cc1)c1ccc(Cl)cc1 (stereo not drawn) | > 53.7 µM | > 53.7 |  |
| CCCCCCCCCCCCCCCCOP(=O)(O)Oc1ccc(/C=C\c2ccc(OP(=O)(O)OCCCCCCCCCCCCCCCC)cc2)cc1 |  |  | inactive |
| O=C(OC[C@H]1C[C@H]2C(=O)CCC[C@H]2O1)c1ccccc1 | > 200 µM | > 200 |  |
| O=C(Cc1ccccc1)NNc1nc(NNC(=O)c2ccncc2)nc(Nc2ccc(Cl)cc2)n1 | > 100 µM | > 100 |  |
| CC(=O)CCCCCCCCCCCC[C@@H]1CC[C@H](C)[C@H](O)N1 | > 21.9 µM | > 21.9 |  |
| CC(=O)Nc1ccc2c(c1)C(c1ccccc1)=NCC(=O)N2 | > 200 µM | 55 |  |
| CN1CC(C)(C)C(O)c2ccccc21 (stereo not drawn) | > 955 µM | 525 |  |
| OCC1OC(c2cccc3cc(O)c(O)cc23)CC1O (stereo not drawn) | > 200 µM | 51.3 |  |
| N=C(N)c1ccc(OCCCOc2ccc(C(=N)N)cc2)cc1 | > 200 µM | 17 |  |
| O=C(Cc1ccccc1)Nc1ccccc1Cl | > 204 µM | > 204 |  |
| CC(=O)OCC1OC(n2c(N)c(C#N)c(C)c(C#N)c2=S)C(OC(C)=O)C(OC(C)=O)C1OC(C)=O (stereo not drawn) | 145 µM and 162 µM | > 200 |  |
| CCCCNC(=S)Nc1nc(C(=O)NNC(=S)NCC)cs1 | > 200 µM | > 200 |  |
| O=C(Nc1ccccc1)c1cc2c(cc1Cl)Sc1nccn1S2(=O)=O | > 200 µM | > 100 |  |
| N#C/C(C(=S)NCc1ccccc1)=C(/N)N1CCCC1 | > 200 µM | 148 |  |
| O=C(CNc1nccs1)Nn1cnc2ccc(S(=O)(=O)Nc3nccs3)cc2c1=O | > 200 µM | > 200 |  |
| O=P(O)(O)C(CSc1ccccc1)P(=O)(O)O |  |  | inactive |

| Compound | EC50 | IC50 [µM] | outcome |
| --- | --- | --- | --- |
| CN1CC2CN(Cc3ccccc3)CCN2c2cccnc21 (stereo not drawn) | > 200 µM | 81.3 |  |
| CC(C1CCCC1=O)C1CCCC1=O (stereo not drawn) |  |  | inactive |
| CN=C1SC(=Nc2ccc(N(C)C)cc2)N1C |  |  | inactive |
| CP(=O)(CCSc1ccccc1)c1ccccc1 (stereo not drawn) | > 661 µM | > 661 |  |
| Cc1cn(C2COC(CO)C2CO)c(=O)[nH]c1=O (stereo not drawn) | 44.7 µM | > 200 |  |
| c1ccc2c(c1)nnn2CN1CCOCC1 |  |  | inactive |
| CCc1nnc(CC)n1N1C(=O)CCC1=O | > 200 µM | > 200 |  |
| S=c1ncc2n[nH]nc2[nH]1 | > 200 µM | > 200 |  |
| COc1ccc(-c2cc(=O)c3c(O)cc(OC)cc3o2)cc1 | 70.8 µM | 74.1 |  |
| CN(C)C1=CC(=O)c2ccccc2C12CO2 (stereo not drawn) | > 234 µM | 41.7 |  |
| Clc1ccc(N=C/C=C/Nc2ccc(Cl)cn2)nc1 | > 200 µM | 13.8 |  |
| COc1ccc(C(=C2C(=O)N(c3ccccc3)C(=O)C2=C(C)C)c2ccc(OC)cc2)cc1 | > 200 µM | 3.39 |  |
| COc1ccc(/C(C)=N/Nc2ccc([N+](=O)[O-])cc2[N+](=O)[O-])cc1 |  |  | inactive |
| CCN(CC)CCS(=O)c1c2cc(OC)ccc2nc2ccc(OC)cc12 (stereo not drawn) | > 200 µM | 3.39 |  |
| N[C@H](C(=O)O)[C@@H]1CC(Cl)=NO1 | > 15.1 µM | > 15.1 |  |
| Cc1ccc(Nc2nc3c(s2)C(=O)c2ccccc2C3=O)c(C)c1 | > 30.2 µM | 15.8 |  |
| CCC(C)C(CC)(C(=O)O)C(=O)O (stereo not drawn) | > 1320 µM | 380 |  |
| O=c1[nH]c(-c2ccccc2)nc2cc(Cl)ccc12 |  |  | inactive |
| CCC1Sc2cc(OC)cc([N+](=O)[O-])c2NC1=O (stereo not drawn) | > 200 µM | > 200 |  |
| COc1cc2c(cc1OC)C1CC(OC(=O)c3ccccc3)(c3nccc4cc(OC)c(OC)cc34)CCN1CC2 (stereo not drawn) |  |  | inactive |
| COC(=O)[C@]12CSCN1C(=O)C(C(C)=O)=NN2C(=O)[C@](OC)(c1ccccc1)C(F)(F)F | > 200 µM | > 200 |  |
| CN1CCN(CCSc2nnc(-c3cc4ccccc4s3)c3ccccc23)CC1 | > 162 µM | 12.9 |  |
| Nc1nc(NCCO)c(N=O)c(=O)[nH]1 | > 182 µM | > 182 |  |

| Compound | EC50 | IC50 [µM] | outcome |
| --- | --- | --- | --- |
| N#C/C(=C\c1ccc(F)cc1)c1nc2ccccc2c(=O)[nH]1 |  |  | inactive |
| Cc1nnc2sc(/C=C/c3ccccc3)nn12 |  | > 200 | inactive |
| NC(=S)N/N=C/c1cc2c3c(c1)CCCN3CCC2 | > 200 µM | > 200 |  |
| CC1(C)CN=C(Nc2ccc(F)c(Cl)c2)S1 | > 200 µM | > 200 |  |
| COc1ccc(C(=C[N+](=O)[O-])c2ccc(OC)cc2)cc1 |  |  | inactive |
| O=C1OC(=O)C2=C1C1c3ccccc3C2c2ccccc21 | > 95.5 µM | 22.4 |  |
| COC1C=C(NCC2(CO)CCC2)NC(N)=N1 (stereo not drawn) | > 200 µM | > 200 |  |
| CC(=O)SSC12CC3CC(CC(C3)C1)C2 | > 200 µM | > 200 |  |
| Cc1ccc([N+](=O)[O-])cc1NC(=O)C(=O)Cc1occc(=O)c1O |  |  | inactive |
| COc1cc(OC)c2nc(C)c(CCCl)c(Cl)c2c1 | > 200 µM | > 200 |  |
| C=CCCCCCCCCC(=O)NCC1CC1 | > 200 µM | > 200 |  |
| NC(N)=NS(=O)(=O)c1ccc(NC(=O)c2ccc3nc4ccccc4c(Nc4ccc(S(N)(=O)=O)cc4)c3c2)cc1 | > 200 µM | 148 |  |
| COC1(OC)CC2C=C(S(=O)(=O)c3ccccc3)C1N(Cc1ccccc1)C2=O (stereo not drawn) |  |  | inactive |
| O/N=C(\CC(O)(C(F)(F)F)C(F)(F)F)c1cccc(Cl)c1 | > 200 µM | 10.7 |  |
| CNc1cc2oc(=O)cc(C)c2cc1C | > 67.6 µM | > 67.6 |  |
| O=C(/N=C/c1c(O)c2ccccc2oc1=O)Oc1ccccc1 | > 100 µM | 33.1 |  |
| S=C(Nc1ccc(N=Nc2ccccc2)cc1)SCc1ccc2c(c1)OCO2 | > 200 µM | 10.7 |  |
| CSc1ncnc2nc(C(O)c3ccccc3)[nH]c12 (stereo not drawn) |  |  | inactive |
| COc1cc2c(cc1OC(=O)CC(C)O)C1C(OC2=O)C(OC(C)=O)C=C2CCN(C)[C@H]21 (stereo partly drawn) | > 56.2 µM | > 56.2 |  |
| c1ccc(SC2(Sc3ccccc3)CCCC2)cc1 |  |  | inactive |
| COc1ccc(C2=C(Cl)c3cc(OC)c(OC)cc3C2OC)cc1OC (stereo not drawn) | > 26.3 µM | > 26.3 |  |
